How the values were obtained:
CHA 9-3 cells = test: Multitelomeric signals (MTS) by Q-FISH on metaphase spreads; assay type: cell-based, mouse; details: 10 μM, 24 h
Text: Trf1 abrogation is known to lead to a persistent DDR at telomeres, and to induction of telomere-induced chromosomal aberrations[28]–[30]. Trf1 genetic deletion induces the so-called multitelomeric signals (MTS), a chromosomal aberration related to increased telomere fragility during DNA replication, [29]. […] To this end, we treated CHA 9-3 cells with either DMSO, the AKT inhibitor MK-2206 (AKTi) and the PI3K inhibitors ETP-47037 or ETP-47228. For detection of MTS, we performed quantitative fluorescence in situ hybridization (Q-FISH) analysis on metaphase spreads using a telomeric probe to visualize telomeres (“Methods” section). MTS are visualized by presenting a multi-dot pattern at chromosome ends in contrast to normal telomeres that show a single dot at each chromosome end.
Lung cancer-derived cell line (CHA-9-3) and immortalized P110α ^lox/lox MEFS were treated either with 10 µM of ETP-47037, ETP-47228, or AKTi (MK-2206) for 24 h. Q-FISH in metaphase spreads was performed as described above, but increasing the concentration of formamide in both the incubation and the washes to 70%.

mTOR (FRAP1) = target: T1, mTOR (FRAP1) (Homo sapiens, UniProt P42345); test: mTOR biochemical assay (LanthaScreen)
T1 construct: purchased ThermoFisher PV4753

PDGFR-alpha = target: T2, PDGFR-alpha (Homo sapiens, UniProt P16234); test: ProQinase kinase panel; assay type: biochemical; details: read-out: Inh (%) at 1µM, PDGFR-alpha
T2 construct: purchased ProQinase
T2 sequence (P16234 24-1089): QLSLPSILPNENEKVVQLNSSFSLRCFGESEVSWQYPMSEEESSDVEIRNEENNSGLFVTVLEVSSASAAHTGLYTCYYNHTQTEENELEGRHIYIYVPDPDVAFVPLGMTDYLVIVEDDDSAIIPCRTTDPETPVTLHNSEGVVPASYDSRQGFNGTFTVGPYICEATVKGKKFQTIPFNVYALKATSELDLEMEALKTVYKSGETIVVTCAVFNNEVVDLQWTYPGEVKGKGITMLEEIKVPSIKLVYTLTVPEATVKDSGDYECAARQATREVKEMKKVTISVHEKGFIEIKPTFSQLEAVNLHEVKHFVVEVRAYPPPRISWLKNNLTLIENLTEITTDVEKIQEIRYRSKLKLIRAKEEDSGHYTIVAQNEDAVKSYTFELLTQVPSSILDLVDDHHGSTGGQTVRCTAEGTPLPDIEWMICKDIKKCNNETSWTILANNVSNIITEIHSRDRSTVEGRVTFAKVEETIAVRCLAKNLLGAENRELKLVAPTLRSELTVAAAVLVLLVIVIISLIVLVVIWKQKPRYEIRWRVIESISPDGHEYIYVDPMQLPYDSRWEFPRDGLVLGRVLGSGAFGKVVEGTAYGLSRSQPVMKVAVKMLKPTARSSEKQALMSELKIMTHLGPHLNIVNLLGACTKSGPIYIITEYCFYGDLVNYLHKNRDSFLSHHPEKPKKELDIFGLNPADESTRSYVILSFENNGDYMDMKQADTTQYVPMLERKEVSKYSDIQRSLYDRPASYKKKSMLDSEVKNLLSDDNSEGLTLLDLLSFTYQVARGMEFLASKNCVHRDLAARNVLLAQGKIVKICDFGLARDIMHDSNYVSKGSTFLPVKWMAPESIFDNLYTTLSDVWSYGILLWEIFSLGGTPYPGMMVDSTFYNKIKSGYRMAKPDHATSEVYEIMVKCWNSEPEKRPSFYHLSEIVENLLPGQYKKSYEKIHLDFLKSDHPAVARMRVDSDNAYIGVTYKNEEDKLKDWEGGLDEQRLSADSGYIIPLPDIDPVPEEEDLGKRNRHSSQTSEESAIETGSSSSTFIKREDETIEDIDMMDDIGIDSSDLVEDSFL
Description: (§1) Supplementary Table 1: Kinase selectivity profile of ETP-47037 and ETP-47228 at 1 µM. Selectivity against protein kinases was determined from evaluation of compounds at 1µM in ProQinase’s 24 selected panel that represents the ACG, STE, TKL, TK, CMGC CAMK and CK1 kinase families.

CHK1 = target: T3, CHK1 (Homo sapiens, UniProt O14757); test: ProQinase kinase panel; assay type: biochemical; details: read-out: Inh (%) at 1µM, CHK1
T3 construct: purchased ProQinase
Description: as §1

CDK8-CycC = target: T4, CDK8-CycC (Homo sapiens, UniProt P49336); test: ProQinase kinase panel; assay type: biochemical; details: read-out: Inh (%) at 1µM, CDK8-CycC
T4 construct: purchased ProQinase
Description: as §1

CK1-alpha1 = target: T5, CK1-alpha1 (Homo sapiens, UniProt P48729); test: ProQinase kinase panel; assay type: biochemical; details: read-out: Inh (%) at 1µM, CK1-alpha1
T5 construct: purchased ProQinase
Description: as §1

SGK1 = target: T6, SGK1 (Homo sapiens, UniProt O00141); test: ProQinase kinase panel; assay type: biochemical; details: read-out: Inh (%) at 1µM, SGK1
T6 construct: purchased ProQinase
Description: as §1

EGF-R = target: T7, EGF-R (Homo sapiens, UniProt P00533); test: ProQinase kinase panel; assay type: biochemical; details: read-out: Inh (%) at 1µM, EGF-R
T7 construct: purchased ProQinase
Description: as §1

MEK1 = target: T8, MEK1 (Homo sapiens, UniProt Q02750); test: ProQinase kinase panel; assay type: biochemical; details: read-out: Inh (%) at 1µM, MEK1
T8 construct: purchased ProQinase
T8 sequence (Q02750 whole entry): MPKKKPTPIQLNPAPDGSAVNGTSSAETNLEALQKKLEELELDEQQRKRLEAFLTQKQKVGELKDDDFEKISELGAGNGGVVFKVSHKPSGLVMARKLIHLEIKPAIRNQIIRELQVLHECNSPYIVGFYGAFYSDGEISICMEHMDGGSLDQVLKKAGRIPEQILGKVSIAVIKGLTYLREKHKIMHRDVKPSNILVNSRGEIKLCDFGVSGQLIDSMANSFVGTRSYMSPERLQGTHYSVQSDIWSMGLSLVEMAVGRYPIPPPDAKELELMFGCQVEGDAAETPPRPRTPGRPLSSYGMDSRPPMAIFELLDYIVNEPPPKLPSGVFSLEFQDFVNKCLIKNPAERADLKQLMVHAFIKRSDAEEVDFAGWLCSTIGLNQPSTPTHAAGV
Description: as §1

VEGF-R2 = target: T9, VEGF-R2 (Homo sapiens, UniProt P35968); test: ProQinase kinase panel; assay type: biochemical; details: read-out: Inh (%) at 1µM, VEGF-R2
T9 construct: purchased ProQinase
Description: as §1

IGF1-R = target: T10, IGF1-R (Homo sapiens, UniProt P08069); test: ProQinase kinase panel; assay type: biochemical; details: read-out: Inh (%) at 1µM, IGF1-R
T10 construct: purchased ProQinase
T10 sequence (P08069 31-1367): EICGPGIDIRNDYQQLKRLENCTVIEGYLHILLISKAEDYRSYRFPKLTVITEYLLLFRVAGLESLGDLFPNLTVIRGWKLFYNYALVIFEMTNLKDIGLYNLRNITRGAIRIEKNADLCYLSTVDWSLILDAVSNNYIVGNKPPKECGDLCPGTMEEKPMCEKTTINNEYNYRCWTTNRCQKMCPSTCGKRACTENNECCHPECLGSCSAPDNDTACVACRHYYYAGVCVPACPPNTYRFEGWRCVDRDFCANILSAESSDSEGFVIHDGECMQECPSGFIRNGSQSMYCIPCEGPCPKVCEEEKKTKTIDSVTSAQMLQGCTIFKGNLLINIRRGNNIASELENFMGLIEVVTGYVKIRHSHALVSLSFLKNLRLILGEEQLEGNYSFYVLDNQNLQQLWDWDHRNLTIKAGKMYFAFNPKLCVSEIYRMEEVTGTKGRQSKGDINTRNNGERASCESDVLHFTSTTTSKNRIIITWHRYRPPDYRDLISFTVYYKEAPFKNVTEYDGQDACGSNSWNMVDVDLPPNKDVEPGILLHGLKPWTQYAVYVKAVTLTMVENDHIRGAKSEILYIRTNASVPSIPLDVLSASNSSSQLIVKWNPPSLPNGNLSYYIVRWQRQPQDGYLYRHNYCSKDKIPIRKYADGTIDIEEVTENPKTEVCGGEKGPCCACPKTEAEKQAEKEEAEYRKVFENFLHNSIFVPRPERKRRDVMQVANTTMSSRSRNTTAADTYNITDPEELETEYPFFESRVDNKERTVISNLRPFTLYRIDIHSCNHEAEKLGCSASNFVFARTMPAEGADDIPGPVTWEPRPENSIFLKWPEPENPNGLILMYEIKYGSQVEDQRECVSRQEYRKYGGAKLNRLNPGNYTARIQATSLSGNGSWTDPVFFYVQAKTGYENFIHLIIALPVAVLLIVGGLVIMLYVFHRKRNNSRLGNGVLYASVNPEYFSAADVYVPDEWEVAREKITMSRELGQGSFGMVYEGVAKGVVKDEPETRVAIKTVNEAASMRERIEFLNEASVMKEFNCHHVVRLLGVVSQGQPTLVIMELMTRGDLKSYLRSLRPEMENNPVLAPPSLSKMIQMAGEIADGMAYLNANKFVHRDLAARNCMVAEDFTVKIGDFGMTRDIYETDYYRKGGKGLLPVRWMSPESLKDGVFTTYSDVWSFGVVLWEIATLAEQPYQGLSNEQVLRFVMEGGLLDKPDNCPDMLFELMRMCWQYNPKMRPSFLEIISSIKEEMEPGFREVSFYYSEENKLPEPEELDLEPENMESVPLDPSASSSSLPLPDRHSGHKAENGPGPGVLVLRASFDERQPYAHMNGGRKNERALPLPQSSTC
Description: as §1

JAK2 = target: T11, JAK2 (Homo sapiens, UniProt O60674); test: ProQinase kinase panel; assay type: biochemical; details: read-out: Inh (%) at 1µM, JAK2
T11 construct: purchased ProQinase
Description: as §1

AKT2 = target: T12, AKT2 (Homo sapiens, UniProt P31751); test: ProQinase kinase panel; assay type: biochemical; details: read-out: Inh (%) at 1µM, AKT2
T12 construct: purchased ProQinase
Description: as §1

FGF-R1 = target: T13, FGF-R1 (Homo sapiens, UniProt P11362); test: ProQinase kinase panel; assay type: biochemical; details: read-out: Inh (%) at 1µM, FGF-R1
T13 construct: purchased ProQinase
Description: as §1

PDK1 = target: T14, PDK1 (Homo sapiens, UniProt O15530); test: ProQinase kinase panel; assay type: biochemical; details: read-out: Inh (%) at 1µM, PDK1
T14 construct: purchased ProQinase
Description: as §1

RPS6KA1 = target: T15, RPS6KA1 (Homo sapiens, UniProt Q15418); test: ProQinase kinase panel; assay type: biochemical; details: read-out: Inh (%) at 1µM, RPS6KA1
T15 construct: purchased ProQinase
T15 sequence (Q15418 whole entry): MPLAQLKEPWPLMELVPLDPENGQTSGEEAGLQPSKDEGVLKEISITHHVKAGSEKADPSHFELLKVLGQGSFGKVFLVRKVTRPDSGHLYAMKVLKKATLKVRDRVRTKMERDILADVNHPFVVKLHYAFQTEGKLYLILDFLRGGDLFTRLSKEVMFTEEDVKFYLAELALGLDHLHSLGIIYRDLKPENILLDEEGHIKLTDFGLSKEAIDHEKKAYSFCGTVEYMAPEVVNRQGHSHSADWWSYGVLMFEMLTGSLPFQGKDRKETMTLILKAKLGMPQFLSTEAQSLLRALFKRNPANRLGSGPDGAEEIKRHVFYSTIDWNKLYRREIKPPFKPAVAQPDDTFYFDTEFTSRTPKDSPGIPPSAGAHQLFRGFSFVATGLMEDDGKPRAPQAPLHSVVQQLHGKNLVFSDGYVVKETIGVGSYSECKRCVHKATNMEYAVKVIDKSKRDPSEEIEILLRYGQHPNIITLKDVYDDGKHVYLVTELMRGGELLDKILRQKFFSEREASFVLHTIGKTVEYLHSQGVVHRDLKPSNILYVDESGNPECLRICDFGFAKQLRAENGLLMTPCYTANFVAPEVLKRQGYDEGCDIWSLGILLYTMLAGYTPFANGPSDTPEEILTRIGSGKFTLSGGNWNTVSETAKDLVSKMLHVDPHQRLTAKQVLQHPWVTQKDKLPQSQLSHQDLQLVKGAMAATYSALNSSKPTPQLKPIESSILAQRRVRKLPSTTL
Description: as §1

CHK2 = target: T16, CHK2 (Homo sapiens, UniProt O96017); test: ProQinase kinase panel; assay type: biochemical; details: read-out: Inh (%) at 1µM, CHK2
T16 construct: purchased ProQinase
T16 sequence (O96017 whole entry): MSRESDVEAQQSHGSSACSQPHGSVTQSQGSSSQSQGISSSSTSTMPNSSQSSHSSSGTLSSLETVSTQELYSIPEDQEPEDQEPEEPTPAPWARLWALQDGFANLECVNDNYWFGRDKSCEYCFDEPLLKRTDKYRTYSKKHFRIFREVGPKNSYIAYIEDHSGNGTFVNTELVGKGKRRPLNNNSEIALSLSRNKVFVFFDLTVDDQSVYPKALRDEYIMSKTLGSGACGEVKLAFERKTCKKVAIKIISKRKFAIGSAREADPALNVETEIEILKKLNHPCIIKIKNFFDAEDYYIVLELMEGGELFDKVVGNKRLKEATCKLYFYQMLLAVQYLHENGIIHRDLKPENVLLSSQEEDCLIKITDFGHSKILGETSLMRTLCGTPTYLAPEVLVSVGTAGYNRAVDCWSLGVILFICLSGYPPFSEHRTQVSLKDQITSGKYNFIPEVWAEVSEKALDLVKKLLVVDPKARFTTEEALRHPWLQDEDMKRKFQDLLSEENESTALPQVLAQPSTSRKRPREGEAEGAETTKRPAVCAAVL
Description: as §1

DYRK1A = target: T17, DYRK1A (Homo sapiens, UniProt Q13627); test: ProQinase kinase panel; assay type: biochemical; details: read-out: Inh (%) at 1µM, DYRK1A
T17 construct: purchased ProQinase
Description: as §1

B-RAF-V600E = target: T18, B-RAF-V600E (Homo sapiens, UniProt P15056, V600E); test: ProQinase kinase panel; assay type: biochemical; details: read-out: Inh (%) at 1µM, B-RAF-V600E
T18 construct: purchased ProQinase
Description: as §1

PAK1 = target: T19, PAK1 (Homo sapiens, UniProt Q13153); test: ProQinase kinase panel; assay type: biochemical; details: read-out: Inh (%) at 1µM, PAK1
T19 construct: purchased ProQinase
Description: as §1

MET = target: T20, MET (Homo sapiens, UniProt P08581); test: ProQinase kinase panel; assay type: biochemical; details: read-out: Inh (%) at 1µM, MET
T20 construct: purchased ProQinase
Description: as §1

KIT = target: T21, KIT (Homo sapiens, UniProt P10721); test: ProQinase kinase panel; assay type: biochemical; details: read-out: Inh (%) at 1µM, KIT
T21 construct: purchased ProQinase
Description: as §1

IKK-beta = target: T22, IKK-beta (Homo sapiens, UniProt O14920); test: ProQinase kinase panel; assay type: biochemical; details: read-out: Inh (%) at 1µM, IKK-beta
T22 construct: purchased ProQinase
T22 sequence (O14920 whole entry): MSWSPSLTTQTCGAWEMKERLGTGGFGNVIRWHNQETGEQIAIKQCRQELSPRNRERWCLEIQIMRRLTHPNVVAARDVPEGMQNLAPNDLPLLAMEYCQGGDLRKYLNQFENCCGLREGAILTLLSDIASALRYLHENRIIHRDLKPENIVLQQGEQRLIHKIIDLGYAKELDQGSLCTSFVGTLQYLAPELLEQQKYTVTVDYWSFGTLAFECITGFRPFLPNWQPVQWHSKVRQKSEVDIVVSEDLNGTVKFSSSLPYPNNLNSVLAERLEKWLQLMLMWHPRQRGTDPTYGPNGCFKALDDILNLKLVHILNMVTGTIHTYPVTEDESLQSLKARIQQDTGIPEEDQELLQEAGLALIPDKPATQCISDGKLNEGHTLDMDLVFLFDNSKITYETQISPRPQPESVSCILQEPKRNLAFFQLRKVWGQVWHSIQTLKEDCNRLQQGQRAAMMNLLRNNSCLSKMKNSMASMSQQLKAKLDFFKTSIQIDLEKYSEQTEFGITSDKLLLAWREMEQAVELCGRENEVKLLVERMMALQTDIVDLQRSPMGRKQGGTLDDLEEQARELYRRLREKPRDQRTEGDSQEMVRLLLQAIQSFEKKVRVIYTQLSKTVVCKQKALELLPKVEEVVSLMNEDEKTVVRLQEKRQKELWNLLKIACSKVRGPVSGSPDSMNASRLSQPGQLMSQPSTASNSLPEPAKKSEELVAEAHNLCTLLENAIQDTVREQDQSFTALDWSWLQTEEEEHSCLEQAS
Description: as §1

SRC = target: T23, SRC (Homo sapiens, UniProt P12931); test: ProQinase kinase panel; assay type: biochemical; details: read-out: Inh (%) at 1µM, SRC
T23 construct: purchased ProQinase
Description: as §1

FAK = target: T24, FAK (Homo sapiens, UniProt Q05397); test: ProQinase kinase panel; assay type: biochemical; details: read-out: Inh (%) at 1µM, FAK
T24 construct: purchased ProQinase
Description: as §1

INS-R = target: T25, INS-R (Homo sapiens, UniProt P06213); test: ProQinase kinase panel; assay type: biochemical; details: read-out: Inh (%) at 1µM, INS-R
T25 construct: purchased ProQinase
Description: as §1

PI3K (p110α) = target: T26, PI3K (p110α) (Homo sapiens, UniProt P42336); test: PI3K alpha biochemical assay (ADP Hunter Plus); details: internal data; read-out: PI3Kα IC50
T26 construct: purchased Cama Biosciences (sic; Carna Biosciences) #07CBS-0402A

| SMILES | Frequency of MTS events per metaphase compared to DMSO (CHA 9-3 cells) | inhibition at 1 µM (PDGFR-alpha) | inhibition at 1 µM (CHK1) | inhibition at 1 µM (CDK8-CycC) | inhibition at 1 µM (CK1-alpha1) | inhibition at 1 µM (SGK1) | inhibition at 1 µM (EGF-R) | inhibition at 1 µM (MEK1) | inhibition at 1 µM (VEGF-R2) | inhibition at 1 µM (IGF1-R) | inhibition at 1 µM (JAK2) | inhibition at 1 µM (AKT2) | inhibition at 1 µM (FGF-R1) | inhibition at 1 µM (PDK1) | inhibition at 1 µM (RPS6KA1) | inhibition at 1 µM (CHK2) | inhibition at 1 µM (DYRK1A) | inhibition at 1 µM (B-RAF-V600E) | inhibition at 1 µM (PAK1) | inhibition at 1 µM (MET) | also measured |
| --- | --- | --- | --- | --- | --- | --- | --- | --- | --- | --- | --- | --- | --- | --- | --- | --- | --- | --- | --- | --- | --- |
| CS(=O)(=O)N1CCN(Cc2cc3c(N4CCOCC4)nc(-c4cnc(N)nc4)cn3n2)CC1 [ETP-47037] | significantly increased | 4% | 15.5% | -4.5% | -6% | 0.5% | 22.5% | -15% | 21.5% | 2% | 2% | -7.5% | 6.5% | 7% | -4.5% | 0.5% | -1% | 6.5% | -3.5% | 3% | IC50 (mTOR (FRAP1); as given in the text): 1700 nM; inhibition at 1 µM (KIT): 9%; inhibition at 1 µM (IKK-beta): 1%; inhibition at 1 µM (SRC): 26%; inhibition at 1 µM (FAK): 14.5%; inhibition at 1 µM (INS-R): 5%; IC50 (PI3K (p110α)): 0.99 nM |
| Cc1cnc2c(N3CCOCC3)nc(-c3ccc(NC(=O)Nc4ccc(C(=O)N5CCN(C)CC5)cc4)cc3)cn12 [ETP-47228] | significantly increased | 1% | -11.5% | 1% | 2% | 0.5% | 0.5% | -3% | -3% | -19% | 4% | -8% | -3.5% | -9% | -1.5% | 3% | 4% | 11.5% | 1% | 3% | IC50 (mTOR (FRAP1); internal data): 443 nM; inhibition at 1 µM (KIT): 6.5%; inhibition at 1 µM (IKK-beta): -10%; inhibition at 1 µM (SRC): 5%; inhibition at 1 µM (FAK): -7.5%; inhibition at 1 µM (INS-R): -3%; IC50 (PI3K (p110α)): 2.6 nM |
